From article PMC9407205, “Neuroprotective Potential of Thinned Peaches Extracts Obtained by Pressurized Liquid Extraction after Different Drying Processes” (Foods, 2022)
Marks after values point to notes of the source that are not given here.

Legend:
[1] = ROS scavenging capacity, oxygen radical absorbance capacity (ORAC) assay; settings: PLE extracts under optimized conditions (50% ethanol, 180 °C) and reference standard
Procedure: The ROS scavenging capacity was measured using the oxygen radical absorbance capacity (ORAC) assay described by Ou et al. (2001). Briefly, the reaction mixture contained 100 μL of samples at different concentrations in 10% ethanol (v/v), 100 μL of 590 mmol/L AAPH in 30 mmol/L phosphate buffer (pH 7.5), 100 μL of phosphate buffer and 25 μL of 10 μmol/L fluorescein in buffer. The absorbance was read at the 485 nm excitation spectrum and 528 nm emission spectrum, and recorded at 5 min intervals for 60 min at 37 °C. Ascorbic acid was used as the reference standard and 10% ethanol (v/v) was used as the control. The ROS scavenging capacity was calculated as described by Sánchez-Martínez et al. (2021).

[2] = RNS scavenging capacity, nitric oxide (NO) radical scavenging assay; settings: at the maximum concentration tested, 0.8 mg/mL; PLE extracts under optimized conditions and ascorbic acid
Procedure: The RNS scavenging capacity was estimated by referring to the nitric oxide (NO) radical scavenging assay described by Ho et al. (2010), with some modifications. In brief, 100 μL of the thinned peach extracts in 25% ethanol (v/v) was mixed with 50 μL of 5 mM sodium nitroprusside dehydrate in buffer (30 mmol/L phosphate buffer at pH 7.5) using a transparent 96-well plate. The mixtures were placed under white light at room temperature for 60 min. Afterwards, 100 μL of Griess reagent (500 mg sulphanilamide, 50 mg naphthylethylene diamine dihydrochloride and 1.25 mL of phosphoric acid in 48.5 mL of H2O) was added to each well. The mixtures were allowed to stand for 5 min and the absorbance was read at 546 nm. Ascorbic acid was used as the reference standard and the NO scavenging capacity was calculated as described by Sánchez-Martínez et al. (2021).

[3] = parallel artificial membrane permeability assay for the BBB (PAMPA-BBB); format: in vitro ADME; settings: metabolites in the five PLE extracts, 4 h at 37 °C, pH 7.4; result in words
Procedure: The parallel artificial membrane permeability assay for the BBB assay was carried out as previously described with some modifications. Briefly, 20 mg/mL thinned peach extracts in 50% ethanol (v/v) was diluted to 5 mg/mL with potassium phosphate buffer (10 mmol/L, pH 7.4). Then, 350 μL of 5 mg/mL extracts and 350 μL of buffer were added to each well of the donor plate and the acceptor plate, respectively. The filter membrane of the donor plate was coated with 5 µL of BBB solution. Afterwards, the whole plate was incubated in the dark for 4 h at 37 °C. After incubation, 300 µL of sample from each well in the donor and acceptor plates was taken out, collected and dried. The dried acceptor and donor samples were redissolved in 50 µL of ethanol and analyzed via HPLC-Q-TOF-MS/MS as described below. The permeability across the artificial BBB of each compound was calculated in terms of cm/s, as in [16].

SMILES	ROS (IC50) [1]	RNS, percentage of inhibition of nitrogen species with respect to the control [2]	ability to cross the artificial BBB [3]
O=C1O[C@H]([C@@H](O)CO)C(O)=C1O [Ascorbic acid]	3.3 ± 0.6 ^e µg/mL	83.8 ± 4 ^a %	
CCCCCCCC(O)/C=C\C(O)CCC(O)CCCC(=O)O (stereo not shown) [(9Z)-5,8,11-Trihydroxyoctadec-9-enoic acid]			could cross the BBB
CC1(C)CC[C@]2(C(=O)O)CC[C@]3(C)C(=CCC4[C@@]5(C)C[C@@H](O)[C@H](O)[C@](C)(CO)C5CC[C@]43C)[C@@H]2[C@@H]1O (stereo partly drawn) [triterpenoid 3, (1S,4aR,6aS,6bR,9S,10R,11R,12aR,14bS)-1,10,11-trihydroxy-9-(hydroxymethyl)-2,2,6a,6b,9,12a-hexamethyl-1,3,4,5,6,6a,7,8,8a,10,11,12,13,14b-tetradecahydropicene-4a-carboxylic acid]			highest permeability value
Cc1cc(=O)oc2c(O)c(O)ccc12 [4-methyldaphnetin, 4-Methyldaphnetin]			could cross the BBB
CC(=O)c1ccc(O)c(O)c1 [3,4-dihydroxyacetophenone, 3,4-Dihydroxyacetophenone]			could cross the BBB
COc1ccc(/C=C/C(=O)O)cc1O [isoferulic acid, Isoferulic acid]			could cross the BBB
